Laboratory results from patent US20190117657A1, “METHOD OF INHIBITING HIGH FAT DIET-RELATED CONDITIONS” (South Australian Health and Medical Research Institute …, priority 2016, published 2019).

Tests used:
[1] = target: MNK1 (Homo sapiens, UniProt Q9BUB5); conditions: cited from earlier work
[2] = tested on: MNKs; test: eIF4E phosphorylation (P-eIF4E immunoblot) in 3T3-L1 cells as read-out of MNK activity; format: cell-based
From the text: Similar data obtained in three replicate experiments.
The term “MNK inhibitor” as used herein is intended to refer to any compound that reduces the biological activity of MNK1 (including reducing the biological activity of one or both of splice variants MNK1 a and MNK1b) and/or MNK2 (including reducing the biological activity of one or both of splice variants MNK2a and MNK2b), including by reducing the amount of MNK1 and/or MNK2 expressed. For example, the MNK inhibitor may be a small organic molecule (also referred to as a “small molecule” herein), a peptide antagonist, an inhibitory antibody or fragment thereof, an interfering nucleotide molecule, an aptamer or other MNK inhibitor that inhibits the expression or biological activity as would be understood by those skilled in the art. The biological activity of MNK1 and MNK2 can be measured in a variety of ways, for example, by measuring phosphorylation of its substrate eIF4E to P-eIF4E using any suitable method known to those skilled in the art, for example, by performing an immunoblot or ELISA utilising a specific anti-P-eIF4E antibody, for example, the anti-phospho eIF4E (Ser209) antibody distributed by Merck Millipore, Catalogue No. 07-823 (Merck Millipore, Billerica, Mass., United States of America). […] Those skilled in the art will be aware of how to conduct suitable controls when measuring P-eIF4E levels. The MNK1 and/or MNK2 bioactivity can otherwise be measured using a cellular assay that can detect levels of MNK1 and/or MNK2 bioactivity. Antibodies that specifically detect phosphorylated MNK could also be used, for example, anti-P-MNK1 (Phospho-Mnk1 (Thr197/202) Antibody #2111; Cell Signaling Technology Inc, Danvers, Mass., United States of America). Additionally, those skilled in the art will appreciate that the MNK inhibitors should be safe for use for its intended purpose.
Tissues were harvested in RIPA lysis buffer containing 50 mM TrisHCl, pH 7.4, 150 mM NaCl, 1% Triton X-100, 0.1% sodium deoxycholate, 0.1% sodium dodecyl sulfate, 1 mM ethylenediaminetetraaacteic acid (EDTA), 50 mM β-glycerolphosphate, 0.5 mM NaVO3, 0.1% 2-mercaptoethanol and protease inhibitors (Roche). After lysis, insoluble material was removed by centrifugation at 12,000 g for 10 min at 4° C. Protein content was determined by the Bradford protein assay (Bio-Rad). Immunoblotting was performed as described in Liu et al. (2014). Blots were visualised using a LI-COR Odyssey® Quantitative Imaging System. Primary antibodies as indicated in Table 5 were from Cell Signaling Technologies, except for anti-P-eIF4E (Merck Millipore). Secondary antibodies were obtained from Thermo Fisher Scientific Inc. (Waltham, Mass., United States of America) and used at 1:20,000 dilution.
MNKs are the only kinases known to phosphorylate eIF4E, and accordingly, the phosphorylation of eIF4E (P-eIF4E) provides a direct read-out of MNK biological activity.
(§1) Since eIF4E is only phosphorylated by the MNKs, its phosphorylation status is a reliable read-out of intracellular MNK activity. […] MNK2 is the main MNK in 3T3-L1 cells and in adipose tissue (Moore et al., 2016). In additional studies, tests were conducted to assess the effect of the MNK-I2 inhibitor on the induction of differentiation markers in 3T3-L1 cells.

[3] = tested on: 3T3-L1 cells; test: Induction of adipogenic gene mRNAs in differentiating 3T3-L1 cells (RT-qPCR); format: cell-based
Experimental: Total RNA was isolated from tissues (frozen at the time of sampling) using Trizol reagent (Sigma-Aldrich) according to the manufacturer's instructions. RNA concentrations were determined by absorbance at 260 nm, while quality and integrity were evaluated via 260/230 and 260/280 ratios using a NanoDrop spectrophotometer (Thermo Fisher Scientific). RT-real time PCR amplification was carried out using the ImProm-II Reverse Transcription System (A3800; Promega, Madison, Wis., United States of America) with random primers following the manufacturer's protocol. Subsequently, real-time quantitative (q) PCR was performed using primer sequences described in Supplemental Table S1 of Moore CEJ et al., 2016, the content of which is hereby incorporated by reference in its entirety). The comparative CT method was used to measure the amplification of target mRNA levels compared with […] (B2M) mRNA. In FIG. 1A, the relative amount of each transcript was determined using the equation 2^−dCt, where dCt=(Ct target gene-Ct ref gene), and Ct=cycle threshold.
(§2) For induction of 3T3-L1 (fibroblast) cell differentiation, pre-adipocytes were grown to 2 days post-confluence in DMEM supplemented with 10% FBS (day 0) and the medium was changed to DMEM supplemented with 10% FBS, insulin (167 nM), dexamethasone (0.5 μM), isobutylmethylxanthine (IBMX) (0.5 mM) and rosiglitazone (2 μM). After 48 h, the medium was replaced with medium containing DMEM supplemented with 10% (v/v) FBS and 167 nM insulin. On day 4, after inducing differentiation, and thereafter, the cells were cultured in DMEM with 10% FBS. The maintenance medium was changed every 48 h until the cells were utilised for experimentation (9 days from the initiation of differentiation).
In order to study the role of MNK2 in adipocyte differentiation, 3T3-L1 cells were used in a similar manner to that described in Example 1. […]

[4] = target: T1, MNK2 (Mus musculus, UniProt Q8CDB0); test: P-eIF4E in MNK1-KO mouse embryonic fibroblasts (reports on MNK2); format: cell-based
T1 construct: endogenous in cells; host or cells: MNK1-KO mouse embryonic fibroblasts
T1 sequence (Q8CDB0 whole entry): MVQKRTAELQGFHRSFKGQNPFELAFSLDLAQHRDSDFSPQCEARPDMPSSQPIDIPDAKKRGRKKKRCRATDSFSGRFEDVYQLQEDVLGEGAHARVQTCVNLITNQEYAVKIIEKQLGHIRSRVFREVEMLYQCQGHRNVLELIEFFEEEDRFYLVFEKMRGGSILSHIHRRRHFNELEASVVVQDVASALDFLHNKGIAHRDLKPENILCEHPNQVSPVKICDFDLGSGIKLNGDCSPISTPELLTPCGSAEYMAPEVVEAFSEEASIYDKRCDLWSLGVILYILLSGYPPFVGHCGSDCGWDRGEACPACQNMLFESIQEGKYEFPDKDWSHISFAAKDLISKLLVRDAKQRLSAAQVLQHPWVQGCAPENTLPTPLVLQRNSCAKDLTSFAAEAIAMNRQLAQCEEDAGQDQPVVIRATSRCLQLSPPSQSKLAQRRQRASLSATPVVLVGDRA

[5] = target: T2, MNK1 (Mus musculus, UniProt O08605); test: P-eIF4E in MNK2-KO mouse embryonic fibroblasts (reports on MNK1); format: cell-based; conditions: 1 h
T2 construct: endogenous in cells; host or cells: MNK2-KO mouse embryonic fibroblasts
T2 sequence (O08605 whole entry): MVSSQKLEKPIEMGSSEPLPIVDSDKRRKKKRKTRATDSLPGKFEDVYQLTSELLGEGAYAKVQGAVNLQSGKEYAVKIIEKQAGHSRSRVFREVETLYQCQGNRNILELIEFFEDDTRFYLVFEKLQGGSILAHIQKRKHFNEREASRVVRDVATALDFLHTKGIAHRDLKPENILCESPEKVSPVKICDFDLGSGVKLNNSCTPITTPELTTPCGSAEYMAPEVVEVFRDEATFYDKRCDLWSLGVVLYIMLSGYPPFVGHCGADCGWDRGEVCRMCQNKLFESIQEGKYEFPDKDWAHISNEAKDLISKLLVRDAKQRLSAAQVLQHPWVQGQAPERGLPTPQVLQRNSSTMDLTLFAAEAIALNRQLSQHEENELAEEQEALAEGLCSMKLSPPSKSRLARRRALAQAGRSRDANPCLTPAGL
From the text: FIG. 16 provides the results of studies conducted on mouse embryonic fibroblasts (MEFs): MNK1-KO (A) or MNK2-KO (B). […] The graphs show combined data from three experiments. *, p<0.05 vs. untreated control; ****, p<0.0001, vs. untreated control.
In some embodiments, the MNK inhibitor may preferably show selectivity and/or increased inhibitory potency to MNK2. A simple test for assessing the selectivity of an MNK inhibitor can be conducted by treating suitable cells from animals in which either MNK1 or MNK2 has been knocked out (eg mouse embryonic fibroblasts (MEFs) from MNK1-KO and MNK2-KO mice) with the MNK inhibitor. Since, in MNK1-KO MEFs, eIF4E phosphorylation depends on MNK2, and vice versa, monitoring the effect of different concentrations of an MNK inhibitor of interest on P-eIF4E levels in MNK-KO MEFs reports on the ability of that compound to inhibit MNK2 (MNK1-KO MEFs) or MNK1 (MNK2-KO MEFs).
as §1

[6] = tested on: 3T3-L1 cells; test: Lipid accumulation in differentiating 3T3-L1 cells (Oil Red O / triglyceride); format: cell-based; conditions: 10 μM, 3T3-L1 cells
Experimental: as §2
Assessment of intracellular triglyceride levels was performed using Oil Red O staining as described by others (Smith et al., 1988). Briefly, on day 9 of differentiation of the 3T3-L1 cells were fixed in 10% formalin for 1 hour. […] For quantification, cells were washed extensively with water to remove unbound dye, and 1 ml isopropanol was added to the stained 6-well culture plate. After 5 min, the absorbance of the oil red extract at 510 nm was measured, with an increased absorbance indicative of an increased lipid level within the cells.
The amount of tissue-released triglyceride (TAG) was measured using a Triglyceride Quantification Kit (Abcam, ab65336).

[7] = tested on: other protein kinases; conditions: cited from earlier work

MNK1 (Homo sapiens, UniProt Q9BUB5), sequence (Q9BUB5 whole entry, species assumed): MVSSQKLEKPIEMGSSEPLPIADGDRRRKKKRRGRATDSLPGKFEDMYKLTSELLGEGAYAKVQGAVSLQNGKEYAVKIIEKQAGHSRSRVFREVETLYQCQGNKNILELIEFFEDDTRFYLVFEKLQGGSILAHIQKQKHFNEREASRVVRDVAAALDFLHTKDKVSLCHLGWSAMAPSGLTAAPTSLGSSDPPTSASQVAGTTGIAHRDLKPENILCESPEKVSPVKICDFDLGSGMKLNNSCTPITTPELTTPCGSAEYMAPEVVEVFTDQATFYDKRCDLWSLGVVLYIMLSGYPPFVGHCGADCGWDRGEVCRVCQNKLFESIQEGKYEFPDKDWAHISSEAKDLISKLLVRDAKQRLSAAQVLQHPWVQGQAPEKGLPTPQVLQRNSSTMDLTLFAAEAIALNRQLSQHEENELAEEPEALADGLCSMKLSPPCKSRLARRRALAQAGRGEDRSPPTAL

Structure (SMILES) | Comments (ability to inhibit MNKs, eIF4E phosphorylation) [2] | further results
COC(=O)[C@@]1(C)C[C@@]2(C)O[C@]1(C)n1c3ccccc3c3c4c(c5c6ccccc6n2c5c31)C(=O)NC4 [CGP052088] | – | IC50 [1]: 70 nM
Cc1c(C(=O)NCCc2c[nH]cn2)sc2ncnc(Nc3ccc(F)cc3OC(C)C)c12 [JX-MNK-7S] | Good activity | –
COc1cc(F)ccc1Nc1ncnc2sc(C(=O)N3CCCCC3)c(C)c12 [MNK-5J] | inactive | –
COc1cc(F)ccc1Nc1ncnc2sc(C(=O)N3CCOCC3)c(C)c12 [MNK-5K] | Almost inactive | –
COc1cc(F)ccc1Nc1ncnc2sc(C(=O)NCCCN3CCCC3)c(C)c12 [MNK-5M] | Good activity | –
COc1cc(F)ccc1Nc1ncnc2sc(C(=O)NCCCN3CCOCC3)c(C)c12 [MNK-5O] | Good activity | –
COc1cc(F)ccc1Nc1ncnc2sc(C(=O)NCC(C)(C)CN(C)C)c(C)c12 [MNK-5P] | Moderate activity | –
COc1cc(F)ccc1Nc1ncnc2sc(C(=O)NCCc3c[nH]cn3)c(C)c12 [MNK-5S] | Moderate activity | –
COc1cc(F)ccc1Nc1ncnc2sc(C(=O)NCCc3ccncc3)c(C)c12 [MNK-5U] | Moderate activity | –
COc1cc(F)ccc1Nc1ncnc2sc(C(=O)N3CCN(C)CC3)c(C)c12 [MNK-5V] | Almost inactive | –
COc1cc(F)ccc1Nc1ncnc2sc(C(=O)NC3CCCCC3)c(C)c12 [MNK-5W] | Moderate activity | –
COc1cc(F)ccc1Nc1ncnc2sc(C(=O)N3CCCC3)c(C)c12 [MNK-5X] | Almost inactive | –
Cc1c(C(=O)OCCO)sc2ncnc(Nc3ccc(F)cc3OC(C)C)c12 [MNK-7F] | Weak activity | –
Cc1c(C(=O)NCCCO)sc2ncnc(Nc3ccc(F)cc3OC(C)C)c12 [MNK-7I] | Partially active | –
Cc1c(C(=O)N2CCCCC2)sc2ncnc(Nc3ccc(F)cc3OC(C)C)c12 [MNK-7J] | inactive | –
Cc1c(C(=O)N2CCOCC2)sc2ncnc(Nc3ccc(F)cc3OC(C)C)c12 [MNK-7K] | Almost inactive | –
Cc1c(C(=O)OCCCO)sc2ncnc(Nc3ccc(F)cc3OC(C)C)c12 [MNK-7L] | Partial activity | –
Cc1c(C(=O)NCCCN2CCOCC2)sc2ncnc(Nc3ccc(F)cc3OC(C)C)c12 [MNK-7O] | Good activity | –
Cc1c(C(=O)NCC(C)(C)CN(C)C)sc2ncnc(Nc3ccc(F)cc3OC(C)C)c12 [MNK-7P] | Good activity | –
Cc1c(C(=O)OCCc2ccccc2)sc2ncnc(Nc3ccc(F)cc3OC(C)C)c12 [MNK-7T] | inactive | –
Cc1c(C(=O)NCCc2ccncc2)sc2ncnc(Nc3ccc(F)cc3OC(C)C)c12 [MNK-7U] | Good activity | –
Cc1c(C(=O)N2CCN(C)CC2)sc2ncnc(Nc3ccc(F)cc3OC(C)C)c12 [MNK-7V] | Partial activity | –
Cc1c(C(=O)NC2CCCCC2)sc2ncnc(Nc3ccc(F)cc3OC(C)C)c12 [MNK-7W] | Partial activity | –
Cc1c(C(=O)N2CCCC2)sc2ncnc(Nc3ccc(F)cc3OC(C)C)c12 [MNK-7X] | Partial actvitiy | –
Cc1c(C(=O)NCCCN2CCCC2)sc2ncnc(Nc3ccc(F)cc3OC(C)C)c12 [MNK-I2] | Good activity, especially against MNK2 | inhibition of P-eIF4E / MNK activity ([2]; immunoblot): inhibits P-eIF4E strongly; induction of adipogenic genes (Cebpα, Cebpβ, Cebpδ, Pparγ, Fas, Acc, Cd36 mRNA) ([3]; 3T3-L1 cells with differentiation cocktail, RT-qPCR): impaired the induction of all of the genes in the adipogenic programme; inhibition of P-eIF4E levels in MNK1-KO MEFs ([4]; 1 h, lowest concentration 0.1 μM): inhibited P-eIF4E levels almost completely at all concentrations tested; selectivity for MNK2 over MNK1 ([4]; comparison of MNK1-KO and MNK2-KO MEFs): selectivity of the MNK-I2 inhibitor for MNK2 over MNK1; inhibition of P-eIF4E in MNK2-KO MEFs [5]: weaker inhibitory effect than MNK-I1
CC(=O)C1=C(O)C=C2Oc3c(C(N)=O)c(O)cc(O)c3[C@]2(C)C1=O [cercosporamide, (9aS)-8-Acetyl-9,9a-dihydro-1,3,7-trihydroxy-9a-methyl-9-oxo-4-dibenzofurancaboxamide] | – | lipid accumulation [6]: reduced lipid accumulation; induction of adipogenic genes such as PPARγ (mRNA) ([3]; 10 μM, 3T3-L1 cells): impaired the induction of genes such as PPARγ; inhibition of other protein kinases [7]: inhibit other protein kinases in addition to the MNKs
